# Test results from patent US11696893B2, “Preparation comprising vonoprazan” (Takeda Pharmaceutical Company Limited, priority 2017, dated 2023).
# Columns and labels:
# Format in all cases: physicochemical
# [1] = Dissolution amount of compound A in saturated organic acid; conditions: room temperature, shaken 1 hr
# Experimental: Citric acid, succinic acid, fumaric acid or malic acid was dissolved and saturated in the Japanese Pharmacopoeia dissolution test 2nd fluid (JP2), and filtered. Successively, compound A (0.4 g) was added to a filtrate (10 mL) saturated with an organic acid and the mixture was shaken at room temperature for 1 hr. The solution after shaking was filtered, diluted 50-fold with the Japanese Pharmacopoeia dissolution test 2nd fluid, and the diluted solution was diluted 20-fold with the Japanese Pharmacopoeia dissolution test 2nd fluid. The solution obtained by diluting twice was subjected to HPLC measurement and the dissolution amount of compound A was measured.
# [2] = Influence of concentration of fumaric acid or monosodium fumarate on dissolution amount of compound A (common ion effect); conditions: JP2 with various concentrations of fumaric acid or monosodium fumarate, room temperature, 1 hr; FIG. 11
# Experimental: Solutions containing various concentrations of fumaric acid or monosodium fumarate dissolved in the Japanese Pharmacopoeia dissolution test 2nd fluid were prepared. Then, 50 mg of compound A was measured and charged in a 10 mL plastic tube and each of the above-mentioned solution (5 mL) was added and the mixture was vigorously shaken at room temperature for 1 hr. The suspension after shaking was filtered, diluted 100-fold and subjected to HPLC measurement. The dissolution amount of compound A was measured.
# [3] = Dissolution profile of compound A, fumaric acid, succinic acid (Rotating Basket 100 rpm); conditions: water-insoluble polymer coated particle of Example 1 or coagulation inhibiting substance coated particle of Reference Example 3, 60 mg compound A; FIG. 12-13
# Experimental: The water-insoluble polymer coated particle of Example 1 or the coagulation inhibiting substance coated particle of Reference Example 3, each of which contained 60 mg of compound A, was subjected to a dissolution test using Rotating Basket at 100 rpm and in the same manner as in Experimental Example 1. The dissolution amounts of fumaric acid or succinic acid as well as compound A were also measured. As for fumaric acid and succinic acid, the residual rate of each organic acid in the particles were inversely calculated from the dissolution rate, and the value of the maximum dissolution amount was normalized assuming 0% of the residual rate.
# [4] = Confirmation of dissolution control mechanism-1 (dissolution test, paddle 100 rpm); conditions: water-soluble polymer coated particle 3 of Reference Example 2, FIG. 14
# Experimental: The water-soluble polymer coated particle 3 obtained in Reference Example 2 and containing 60 mg of compound A was subjected to a dissolution test using paddle at 100 rpm and in the same manner as in Experimental Example 1. The dissolution media was the Japanese Pharmacopoeia dissolution test 2nd fluid, the Japanese Pharmacopoeia dissolution test 2nd fluid added with 10% (W/W) sodium carbonate, the Japanese Pharmacopoeia dissolution test 2nd fluid added with 13% (W/W) succinic acid, or the Japanese Pharmacopoeia dissolution test 2nd fluid added with 0.6% (W/W) fumaric acid.
smiles,measurement,setting,value
"CNCc1cc(-c2ccccc2F)n(S(=O)(=O)c2cccnc2)c1.O=C(O)/C=C/C(=O)O [compound A, 1-[5-(2-Fluorophenyl)-1-(pyridin-3-ylsulfonyl)-1H-pyrrol-3-yl]-N-methylmethanamine monofumarate]",concentration (dissolution amount of compound A),"[1]; JP2, saturated organic acid: none",5.22 µg·mL
same,concentration (dissolution amount of compound A),[1]; JP2 saturated with citric acid,26.30 µg·mL
same,concentration (dissolution amount of compound A),"[1]; JP2 saturated with fumaric acid, listed as Compound A, monofumarate",low concentration
same,concentration (dissolution amount of compound A),"[1]; JP2 saturated with fumaric acid, monofumarate",0.67 µg·mL
same,concentration (dissolution amount of compound A),[1]; JP2 saturated with malic acid,26.64 µg·mL
same,dissolution amount of compound A,[2],influenced by the concentration of fumaric acid or monosodium fumarate
same,start of dissolution of compound A relative to organic acid,[3],started after dissolution of fumaric acid or succinic acid
same,dissolution of compound A,[4]; JP2 added with 10% (W/W) sodium carbonate,suppressed dissolution
same,dissolution of compound A,[4]; JP2 added with 13% (W/W) succinic acid or 0.6% (W/W) fumaric acid,did not show a dissolution suppressive action
